Laboratory results from patent publication US9487489B2, “Halogen-substituted pyrazole derivatives as pest-control agents” (BAYER CROPSCIENCE AKTIENGESELLSCHAFT, priority 2013, dated 2016).

How the values were obtained:
[1] = test system: adult cat fleas (Ctenocephalides felis); test: Ctenocephalides felis in vitro contact test with adult cat fleas (T1); details: after 48 h
Description: T1. Ctenocephalides felis—in vitro Contact Tests with Adult Cat Fleas
(§1) For the coating of the test tubes, initially 9 mg of active compound are dissolved in 1 ml of acetone p.a. and then diluted with acetone p.a. to the desired concentration. By turning and rocking on an orbital shaker (2 h of rocking rotation at 30 rpm), 250 μl of the solution are distributed homogeneously on the internal walls and the floor of a 25 ml test tube. At 900 ppm active compound solution and 44.7 cm^2 internal surface, an area dose of 5 μg/cm^2 is achieved for homogeneous distribution.
After evaporation of the solvent, the tubes are populated with 5-10 adult cat fleas (Ctenocephalides felis), sealed with a perforated plastic lid and incubated in a horizontal position at room temperature and ambient humidity. After 48 h, the efficacy is determined. To this end, the test tubes are stood upright and the fleas are knocked to the floor of the tube. Fleas which remain motionless on the floor or move in an uncoordinated manner are considered to be dead or moribund.
An efficacy of 100% means that all fleas were dead or moribund. 0% efficacy means that none of the fleas had been damaged.

[2] = test system: adult dog ticks (Rhipicephalus sanguineus); test: Rhipicephalus sanguineus in vitro contact test with adult brown dog ticks (T2); details: after 48 h
Description: T2. Rhipicephalus sanguineus-in vitro Contact Tests with Adult Brown Dog Ticks
as §1
After evaporation of the solvent, the tubes are populated with 5-10 adult dog ticks (Rhipicephalus sanguineus), sealed with a perforated plastic lid and incubated in a horizontal position in the dark at room temperature and ambient humidity. After 48 h, the efficacy is determined. To this end, the ticks are knocked to the floor of the tube and incubated on a hotplate at 45-50° C. for at most 5 min Ticks which remain motionless on the floor or move in an uncoordinated manner such that they are not able to deliberately avoid the heat by climbing upwards are considered to be dead or moribund.
An efficacy of 100% means that all ticks were dead or moribund. 0% efficacy means that none of the ticks had been damaged.

[3] = test system: larvae of the mustard beetle (Phaedon cochleariae); test: Phaedon cochleariae spray test (PHAECO); assay type: in vivo; details: Chinese cabbage leaf discs, after 7 days
Description: H. Phaedon cochleariae-spray Test (PHAECO)
Solvents: 78.0 parts by weight of acetone
(§2) • 1.5 parts by weight of dimethylformamide Emulsifier: alkylaryl polyglycol ether
(§3) To produce a suitable preparation of active compound, 1 part by weight of active compound is dissolved using the stated parts by weight of solvent and made up with water comprising an emulsifier concentration of 1000 ppm until the desired concentration is reached. To produce further test concentrations, the preparation is diluted with emulsifier-containing water.
After 7 days, the efficacy in % is determined. 100% means that all of the beetle larvae have been killed; 0% means that none of the beetle larvae have been killed.

[4] = test system: greenhouse red spider mite (Tetranychus urticae); test: Tetranychus urticae spray test, OP-resistant (TETRUR); assay type: in vivo; details: bean leaf discs, after 6 days
Description: J. Tetranychus urticae-spray Test, OP-Resistant (TETRUR)
(§4) Solvent: 78.0 parts by weight of acetone
as §2, §3
Discs of bean leaves (Phaseolus vulgaris) which are infested by all stages of the greenhouse red spider mite (Tetranychus urticae) are sprayed with an active compound preparation of the desired concentration.
After 6 days, the efficacy in % is determined. 100% means that all of the spider mites have been killed; 0% means that none of the spider mites have been killed.

[5] = logP determination by HPLC on a reversed-phase column (C18), EEC Directive 79/831 Annex V.A8; assay type: physicochemical; details: HPLC on reversed-phase column (C18), acetonitrile/water with formic acid, EEC Directive 79/831 Annex V.A8
Description: (§5) ^a) Note regarding the determination of the logP values and mass detection: The determination of the given logP values was carried out in accordance with EEC Directive 79/831 Annex V.A8 by HPLC (High Performance Liquid Chromatography) on a reversed-phase column (C18). Agilent 1100 LC system; 50*4.6 Zorbax Eclipse Plus C18 1.8 micron; mobile phase A: acetonitrile (0.1% formic acid); mobile phase B: water (0.09% formic acid); linear gradient from 10% acetonitrile to 95% acetonitrile in 4.25 min, then 95% acetonitrile for a further 1.25 min; oven temperature 55° C.; flow rate: 2.0 ml/min. Mass detection is carried out via an Agilend MSD system.
as §5, with “^*)” for “^a)”

[6] = test system: caterpillars of the armyworm (Spodoptera frugiperda); test: Spodoptera frugiperda spray test (SPODFR); assay type: in vivo; details: maize leaf discs, after 7 days
Description: I. Spodoptera frugiperda-spray Test (SPODFR)
as §4, §2, §3
Leaf discs of maize (Zea mays) are sprayed with an active compound preparation of the desired concentration and, after drying, populated with caterpillars of the armyworm (Spodoptera frugiperda).
After 7 days, the efficacy in % is determined. 100% means that all of the caterpillars have been killed; 0% means that none of the caterpillars have been killed.

Structure (SMILES) | efficacy in % ([3]; application rate 500 g/ha) [%] | efficacy in % ([4]; application rate 500 g/ha) [%] | logP [5] | efficacy in % ([4]; application rate 100 g/ha) [%] | efficacy in % ([3]; application rate 100 g/ha) [%] | efficacy in % ([6]; application rate 100 g/ha) [%] | further results
Cc1cc(NC(=O)c2cc(-c3cnn(-c4c(C(F)(F)F)c(C(F)(F)C(F)(F)F)nn4C)c3)ccc2Cl)no1 [Ic-148] |  |  |  |  |  |  | efficacy (dead or moribund fleas) ([1]; application rate 5 μg/cm^2): 100%; efficacy (dead or moribund ticks) ([2]; application rate 1 μg/cm^2): 80%
Cn1nc(C(F)(F)C(F)(F)F)c(C(F)(F)F)c1-n1cc(-c2ccc(Cl)c(C(=O)NC3CC3(Cl)Cl)c2)cn1 (centres unmarked) [Ic-184] | 100 | 100 | 4.34 |  |  |  | efficacy in % ([6]; application rate 500 g/ha): 100%
Cn1nc(C(F)(F)C(F)(F)F)c(C(F)(F)F)c1-n1cc(-c2ccc(Cl)c(C(=O)NC3(C#N)CC3)c2F)cn1 [Ic-107] | 100 | 100 |  |  |  |  | efficacy (dead or moribund fleas) ([1]; application rate 1 μg/cm^2): 100%; efficacy (dead or moribund fleas) ([1]; application rate 5 μg/cm^2): 100%; efficacy in % ([6]; application rate 500 g/ha): 100%
Cn1nc(C(F)(F)C(F)(F)F)c(C(F)(F)F)c1-n1cc(-c2ccc(Cl)c(C(=O)NC3CCC3C[S+](C)[O-])c2)cn1 (centres unmarked) [Ic-123] |  |  | 3.09 | 100 |  |  | 
Cn1nc(C(F)(F)F)c(C(F)(F)F)c1-n1cc(-c2ccc(Cl)c(C(=O)NCC(F)(F)F)c2)cn1 [Ic-169] |  |  | 3.71 | 100 | 100 | 100 | 
Cn1nc(C(F)(F)F)c(C(F)(F)F)c1-n1cc(-c2ccc(Cl)c(C(=O)NC3CC3F)c2)cn1 (centres unmarked) [Ic-177] |  |  | 3.41 | 100 | 100 | 100 | 
Cn1nc(C(F)(F)F)c(C(F)(F)F)c1-n1cc(-c2ccc(Cl)c(C(=O)NCCF)c2)cn1 [Ic-168] |  |  | 3.24 | 100 | 100 | 83 | 
Cn1nc(C(F)(F)F)c(CO)c1-n1cc(-c2ccc(Cl)c(C(=O)NC3CC3)c2)cn1 [Ic-69] | 83 | 90 | 2.15 |  |  |  | 
Cc1nn(-c2c(C(F)(F)F)c(C(F)(F)C(F)(F)F)nn2C)c(C)c1-c1ccc(Cl)c(C(=O)NC2CC2)c1 [Ic-9] |  |  | 4.02 | 90 |  |  | 
Cn1nc(C(F)(F)F)c(C(F)(F)F)c1-n1cc(-c2ccc(Cl)c(C(=O)NCC(F)F)c2)cn1 [Ic-170] |  |  | 3.43 | 100 | 100 | 100 | 
C#CC(C)NC(=O)c1cc(-c2cnn(-c3c(C(F)(F)F)c(C(F)(F)C(F)(F)F)nn3C)c2)ccc1Cl (centres unmarked) [Ic-193] | 100 | 100 | 3.97 |  |  |  | efficacy in % ([6]; application rate 500 g/ha): 100%
Cc1ccc(-c2cnn(-c3c(C(F)(F)F)c(C(F)(F)C(F)(F)F)nn3C)c2)cc1C(=O)Nc1ccc(F)cc1 [Ic-131] |  |  | 4.57 | 100 | 100 | 100 | 
CCOC1(NC(=O)c2cc(-c3cnn(-c4c(C(F)(F)F)c(C(F)(F)C(F)(F)F)nn4C)c3)ccc2Cl)CC1 [Ic-176] | 100 | 100 | 4.08 |  |  |  | efficacy in % ([6]; application rate 500 g/ha): 100%
Cn1nc(C(F)(F)C(F)(F)F)c(C(F)(F)F)c1-n1cc(-c2ccc(Cl)c(C(=O)NC3(C#N)CSC3)c2)cn1 [Ic-128] |  |  | 4.38 | 100 | 100 | 100 | 
Cn1nc(C(F)(F)F)c(C(F)(F)F)c1-n1cc(-c2ccc(Cl)c(C(=O)Nc3ccccc3)c2)cn1 [Ic-135] |  |  | 4.1 | 100 | 83 | 100 | 
Cn1nc(C(F)(F)C(F)(F)F)c(C(F)(F)F)c1-n1cc(-c2ccc([S+](C)[O-])c(C(=O)NC3CC3)c2)cn1 (centres unmarked) [Ic-189] |  |  | 3.19 | 100 | 100 |  | 
CCOC1C(C)C1NC(=O)c1cc(-c2cnn(-c3c(C(F)(F)F)c(C(F)(F)C(F)(F)F)nn3C)c2)ccc1Cl (centres unmarked) [Ic-183] | 100 | 100 | 4.34 |  |  |  | efficacy in % ([6]; application rate 500 g/ha): 100%
Cn1nc(C(F)(F)C(F)(F)F)c(C(F)(F)F)c1-n1cc(-c2cc(C(=O)NC3CC3)cc3c2OC(F)(F)O3)cn1 [Ic-171] | 100 | 90 |  |  |  |  | efficacy in % ([6]; application rate 500 g/ha): 100%
Cn1nc(C(F)(F)C(F)(F)F)c(C(F)(F)F)c1-n1cc(-c2ccc(Cl)c(C(=O)NC3(C)CC3)c2)cn1 [Ic-200] | 100 | 100 | 4.12 |  |  |  | efficacy in % ([6]; application rate 500 g/ha): 100%
CONC(=O)c1cc(-c2cnn(-c3c(C(F)(F)F)c(C(F)(F)C(F)(F)F)nn3C)c2)ccc1Cl [Ic-155] |  |  |  |  |  |  | efficacy (dead or moribund fleas) ([1]; application rate 1 μg/cm^2): 100%; efficacy (dead or moribund fleas) ([1]; application rate 5 μg/cm^2): 100%; efficacy (dead or moribund ticks) ([2]; application rate 1 μg/cm^2): 100%; efficacy (dead or moribund ticks) ([2]; application rate 5 μg/cm^2): 100%
CSC1CCC1NC(=O)c1cc(-c2cnn(-c3c(C(F)(F)F)c(C(F)(F)C(F)(F)F)nn3C)c2)ccc1Cl (centres unmarked) [Ic-119] |  |  | 4.52 | 100 | 100 | 83 | 
Cn1nc(C(F)(F)C(F)(F)F)c(C(F)(F)F)c1-n1cc(-c2ccc(Cl)c(C(=O)NC3CCC3S(C)(=O)=O)c2)cn1 (centres unmarked) [Ic-124] |  |  | 3.47 | 100 | 100 | 100 | 
Cn1nc(C(F)(F)F)c(CO)c1-n1cc(-c2ccc(Cl)c(C(=O)NC3(C#N)CC3)c2)cn1 [Ic-104] |  |  | 2.13 | 100 | 100 |  | 
Cn1nc(C(F)(F)C(F)(F)F)c(C(F)(F)F)c1-n1cc(-c2cc(C(=O)NC3CC3)c(F)c(F)c2F)cn1 [Ic-201] |  |  |  |  |  |  | efficacy (dead or moribund ticks) ([2]; application rate 1 μg/cm^2): 100%; efficacy (dead or moribund ticks) ([2]; application rate 5 μg/cm^2): 100%
CC#CC(C)NC(=O)c1cc(-c2cnn(-c3c(C(F)(F)F)c(C(F)(F)C(F)(F)F)nn3C)c2)ccc1Cl (centres unmarked) [Ic-198] | 100 | 100 | 4.27 |  |  |  | efficacy in % ([6]; application rate 500 g/ha): 100%
CC(NC(=O)c1cc(-c2cnn(-c3c(C(F)(F)F)c(C(F)(F)C(F)(F)F)nn3C)c2)ccc1Cl)C(F)(F)F (centres unmarked) [Ic-110] |  |  | 4.23 | 100 | 100 | 100 | efficacy (dead or moribund fleas) ([1]; application rate 5 μg/cm^2): 100%
Cn1nc(C(F)(F)C(F)(F)F)c(C(F)(F)F)c1-n1cc(-c2ccc(Cl)c(C(=O)NC3CCC3[S+](C)[O-])c2)cn1 (centres unmarked) [Ic-125] |  |  | 3.17 | 100 | 100 | 83 | 
